Results as given in patent US10919902B2, “Hetero-halo inhibitors of histone deacetylase” (Alkermes, Inc., priority 2015, dated 2021).

What follows are compounds tested against recombinant human HDACs (Homo sapiens) (assay: HDAC enzymatic assay). Details: 5 nM HDAC enzyme, 5 h pre-incubation, 17 h reaction at 25° C.; isoform not given.
Format: biochemical
Experimental: All recombinant human HDACs were purchased from BPS Bioscience. The substrate, FAM-TSRHK(AC)KL-CONH, was synthesized at NanoSyn. Final assay reactions contained 100 mM HEPES (pH 7.5), 50 mM KCl, 0.1% BSA, 0.01% Triton X-100, 1% DMSO, 1 uM substrate and 5 nM HDAC enzyme. Enzyme and compounds were pre-incubated at 25° C. for 5 hours and reactions were initiated by addition of substrate. 10 uL reactions were incubated for 17 hours at 25° C. and terminated by the addition of 40 uL of buffer containing 100 mM HEPES (pH 7.5), 0.1% BSA, 0.01% Triton X-100 and 0.05% SDS. Substrate and product peptides present in each sample were separated electrophoretically using the LabChip 3000 capillary electrophoresis instrument. Change in the relative fluorescence intensity of the substrate and product peaks reflects enzyme activity. Reaction progress was determined as the product to sum ratio (PSR):P/(S+P), where P is the peak height of the product peptide and S is the peak height of the substrate peptide. Reactions were performed in duplicate at 12 concentrations, (3× serial dilutions starting at 30 uM). IC50 values were calculated using a 4 Parameter Logistic Model.

Structure (SMILES) | IC50
COCc1cc2c(cn1)CN(C(=O)Nc1nc(-c3ccc(F)cc3)ccc1N)C2 [Compound 243] | 100 to 500 nM
Cn1cc2c(n1)CN(C(=O)Nc1nc(-c3ccc(F)cc3)ccc1N)C2 [Compound 257] | 100 to 500 nM

Same assay, conditions: 5 nM HDAC enzyme, 5 h pre-incubation, 17 h reaction at 25° C.; isoform not given; read-out: IC50

IC50 | Structure (SMILES)
500 to 5000 nM | CN1CCC(N2C[C@@H]3C(C(=O)Nc4nc(-c5ccc(F)cc5)ccc4N)[C@@H]3C2)CC1 (stereo partly shown) [Compound 263]
> 5000 nM | CN1CCC(COC(=O)Nc2nc(-c3cccnc3)ccc2N)CC1 [Compound 375]
100 to 500 nM | Nc1ccc(-c2ccc(F)cc2)nc1NC(=O)N1Cc2cc(C3CC3)cnc2C1 [Compound 255]
> 5000 nM | CN1CC(n2ncc3c2CN(C(=O)Nc2nc(-c4ccc(F)cc4)ccc2N)C3)C1 [Compound 246]
> 5000 nM | CC(=O)N1CCN(C(=O)Nc2nn(-c3ccccc3)cc2N)CC1 [Compound 360]
100 to 500 nM | Nc1ccc(-c2ccc(F)cc2)nc1NC(=O)N1Cc2cccnc2C1 [Compound 397]
> 5000 nM | Nc1ccc(-c2ccc(F)cc2)nc1NC(=O)N1CC2CCC(C1)O2 [Compound 406]
100 to 500 nM | CN1CCN(c2cc3c(cn2)CN(C(=O)Nc2nc(-c4ccc(F)cc4)ccc2N)C3)CC1 [Compound 160]
100 to 500 nM | CN1CCC(c2cc3c(cn2)CN(C(=O)Nc2nc(-c4ccc(F)cc4)ccc2N)C3)CC1 [Compound 149]
500 to 5000 nM | Nc1ccc(-c2ccc(F)cc2)nc1NC(=O)N1CC2CN(Cc3ccccc3F)CC2C1 (stereo not shown) [Compound 176]
> 5000 nM | CN1CCN(C[C@@H]2[C@H]3CN(C(=O)Nc4nc(-c5ccc(F)cc5)ccc4N)C[C@@H]23)CC1 [Compound 269]
100 to 500 nM | COc1cc2c(cn1)CN(C(=O)Nc1nc(-c3ccc(F)cc3)ccc1N)C2 [Compound 260]
500 to 5000 nM | Cc1cnc(C(=O)Nc2nn(-c3ccccc3)cc2N)s1 [Compound 126]
100 to 500 nM | Nc1ccc(-c2ccc(F)cc2)nc1NC(=O)N1Cc2cccc(F)c2C1 [Compound 259]
500 to 5000 nM | Nc1ccc(-c2ccc(F)cc2)nc1NC(=O)N1Cc2cc(CN3CC(F)(F)C3)cnc2C1 [Compound 266]
100 to 500 nM | Nc1ccc(-c2ccc(F)cc2)nc1NC(=O)N1Cc2cc(N3CCC3)cnc2C1 [Compound 157]
> 5000 nM | Nc1ccc(-n2cccn2)nc1NC(=O)N1CC2CN(CCF)CC2C1 (stereo not shown) [Compound 167]
> 5000 nM | Nc1ccc(-c2ccco2)nc1NC(=O)C1CN(c2ccccn2)C1 [Compound 193]
> 5000 nM | CC(=O)N1CCN(CC(=O)Nc2nc(-c3ccccc3)ccc2N)CC1 [Compound 196]
100 to 500 nM | Nc1ccc(-c2ccc(F)cc2)nc1NC(=O)N1Cc2ccc(CN3CCC(C(F)(F)F)C3)cc2C1 (stereo not shown) [Compound 408]

IC50 | Structure (SMILES)
500 to 5000 nM | Nc1ccc(-c2ccc(F)cc2)nc1NC(=O)N1Cc2cc(N3CCC3)cnc2C1 [Compound 254]
> 5000 nM | Nc1ccc(-c2ccc(F)cc2)nc1NC(=O)N1Cc2cccc(N3CCCC3)c2C1 [Compound 249]
> 5000 nM | Cc1cc(F)ccc1-c1ccc(N)c(NC(=O)N2Cc3cnc(CN(C)C)cc3C2)n1 [Compound 261]
100 to 500 nM | Nc1ccc(-c2cccs2)nc1NC(=O)N1Cc2cc(CN3CCCC3)cnc2C1 [Compound 144]
500 to 5000 nM | CN1CC(CN2CC3CC(C(=O)Nc4nc(-c5ccc(F)cc5)ccc4N)CC3C2)C1 (stereo not shown) [Compound 256]
100 to 500 nM | CC(C)Cc1cnc2c(c1)CN(C(=O)Nc1nc(-c3ccc(F)cc3)ccc1N)C2 [Compound 274]
100 to 500 nM | Nc1ccc(-c2ccc(F)cc2)nc1NC(=O)N1Cc2cc(CN3CCC3)cnc2C1 [Compound 272]
> 5000 nM | Nc1ccc(-c2cccnc2)nc1NC(=O)c1cn2c(n1)CNCC2 [Compound 219]
100 to 500 nM | Nc1ccc(-c2ccc(F)cc2)nc1NC(=O)N1Cc2ccc(CN3CCCC3)cc2C1 [Compound 405]
> 5000 nM | Nc1ccc(-c2ccco2)nc1NC(=O)C1CN(Cc2ccccc2)C1 [Compound 198]
100 to 500 nM | CN1CCC(c2cnc3c(c2)CN(C(=O)Nc2nc(-c4cccs4)ccc2N)C3)CC1 [Compound 250]
500 to 5000 nM | Nc1ccc(-c2ccc(OC(F)F)cc2)nc1NC(=O)N1CCCC1 [Compound 232]
> 5000 nM | CN1CCCC2(CCN(C(=O)Nc3nc(-c4cccnc4)ccc3N)C2)C1 (stereo not shown) [Compound 211]
500 to 5000 nM | COc1ccc(-c2ccc(N)c(NC(=O)N3Cc4ccncc4C3)n2)cc1 [Compound 173]
> 5000 nM | COc1cccc(CN2CCCC3(CCN(C(=O)Nc4nn(-c5ccc(F)cc5)cc4N)C3)C2)c1 (stereo not shown) [Compound 124]
500 to 5000 nM | Nc1ccc(-c2ccc(F)cc2)nc1NC(=O)N1CC2CC(NC3COC3)CC2C1 (stereo not shown) [Compound 172]
> 5000 nM | Nc1ccc(-c2cccnc2)nc1NC(=O)N1CC2(CCNCC2)C1 [Compound 220]
100 to 500 nM | CN1CCN(c2ccc3c(n2)CN(C(=O)Nc2nc(-c4ccc(F)cc4)ccc2N)C3)CC1 [Compound 391]
100 to 500 nM | CN1CCC(c2ccc3c(c2)CN(C(=O)Nc2nn(-c4ccccc4)cc2N)C3)CC1 [Compound 383]
500 to 5000 nM | CN1CC(N2CC3CN(C(=O)Nc4nc(-c5ccc(F)cc5)ccc4N)CC3C2)C1 (stereo not shown) [Compound 152]

IC50 | Structure (SMILES)
> 5000 nM | CN(C1COC1)[C@H]1[C@@H]2CN(C(=O)Nc3nc(-c4ccc(F)cc4)ccc3N)C[C@@H]21 [Compound 262]
100 to 500 nM | Nc1ccc(-c2ccc(F)cc2)nc1NC(=O)N1Cc2cc(CN3CC(F)C3)cnc2C1 [Compound 275]
500 to 5000 nM | Nc1ccc(-c2ccc(F)cc2)nc1NC(=O)N1CC2CC(N3CC(F)C3)CC2C1 (stereo not shown) [Compound 188]
> 5000 nM | Nc1ccc(-c2cccnc2)nc1NC(=O)N1CCCC1 [Compound 221]
500 to 5000 nM | Nc1ccc(-c2ccc(F)cc2)nc1NC(=O)N1CCC(C(F)(F)F)C1 (stereo not shown) [Compound 390]
> 5000 nM | Nc1cn(-c2ccccc2)nc1NC(=O)N1CCN(C2COC2)CC1 [Compound 356]
100 to 500 nM | COCc1ccc2c(c1)CN(C(=O)Nc1nc(-c3ccc(F)cc3)ccc1N)C2 [Compound 396]
500 to 5000 nM | CN1CC(Cn2ncc3c2CN(C(=O)Nc2nc(-c4ccc(F)cc4)ccc2N)C3)C1 [Compound 244]
> 5000 nM | Nc1cn(-c2ccccc2)nc1NC(=O)N1CC2COCC2C1 (stereo not shown) [Compound 382]
100 to 500 nM | CN1CCN(c2ccc3c(c2)CN(C(=O)Nc2nc(-c4ccc(F)cc4)ccc2N)C3)CC1 [Compound 374]
100 to 500 nM | CN(C)Cc1ccc2c(c1)CN(C(=O)Nc1nc(-c3cccs3)ccc1N)C2 [Compound 409]
500 to 5000 nM | COCc1ccc2c(c1)CN(C(=O)Nc1nc(-c3cccnc3)ccc1N)C2 [Compound 393]
100 to 500 nM | CN(C)Cc1cnc2c(c1)CN(C(=O)Nc1nc(-c3ccc(F)cc3)ccc1N)C2 [Compound 154]
500 to 5000 nM | CN1CCC(c2cnc3c(c2)CN(C(=O)Nc2nc(-c4cccnc4)ccc2N)C3)CC1 [Compound 265]
100 to 500 nM | Nc1ccc(-c2ccc(F)cc2)nc1NC(=O)c1nc2c(s1)CCN(CCF)C2 [Compound 165]
> 5000 nM | CN1CCN(C(=O)Nc2nn(-c3ccccc3)cc2N)CC1 [Compound 361]
100 to 500 nM | CN1CCc2sc(C(=O)Nc3nc(-c4ccc(F)cc4)ccc3N)nc2C1 [Compound 153]
> 5000 nM | Nc1ccc(-n2cccn2)nc1NC(=O)N1CC2CC(N3CC(F)C3)CC2C1 (stereo not shown) [Compound 190]
100 to 500 nM | CN(C)Cc1ccc(C2CN(C(=O)Nc3nc(-c4ccc(F)cc4)ccc3N)C2)cc1 [Compound 146]
> 5000 nM | COc1cccc(CN2CCCC3(CCN(C(=O)Nc4nc(-c5ccc(F)cc5)ccc4N)C3)C2)c1 (stereo not shown) [Compound 222]

Structure (SMILES) | IC50
CN1CC2CN(C(=O)Nc3nc(-n4cccn4)ccc3N)CC2C1 (stereo not shown) [Compound 184] | > 5000 nM

The compounds below were run on SH-SY5Y cells (assay: Cell assay: SH-SY5Y cells, HDAC-Glo 2 reagent). Details: Homo sapiens, 5 h incubation, CI-994 at 100 uM = 100% inhibition.
Format: cell-based
Experimental: SH-SY5Y cells (Sigma) were cultured in Eagle's Modified Essential Medium supplemented with 10% fetal bovine serum and pen/strep. Twenty-four hours prior to compound dosing 20 uL of cells were plated in white 384 well plates at a density of 1,500 cells/well. Compounds were serially diluted in neat DMSO and then diluted 1:100 v/v into media without FBS and mixed. Media was removed from the plated cells and the diluted compounds in serum free media (1% v/v final DMSO) were added and incubated at 37° C. for five hours. Ten uL of HDAC-Glo 2 reagent with 0.1% Triton X-100 was then added, the plate was mixed and allowed to develop at room temperature for 100 minutes. Plates were then read with a Spectramax LMax luminometer employing a 0.4 s integration time. Dose response curves were constructed with normalized data where CI-994 at 100 uM was defined as 100% inhibition and DMSO alone as 0% inhibition.

EC50 | Structure (SMILES)
500 to 5000 nM | CN1CCC(N2C[C@@H]3C(C(=O)Nc4nc(-c5ccc(F)cc5)ccc4N)[C@@H]3C2)CC1 (stereo partly shown) [Compound 263]
